Consider 30 compounds from patent publication US6908935B2, “Calcium receptor modulating agents” (Amgen Inc., priority 2002, dated 2005).

Structures are written as SMILES. A value given as a limit tells only on which side of the number the result lay.

In the test the target is T1, human parathyroid cell Ca^2+ receptor (hPCaR) (Homo sapiens, UniProt P41180).
T1 construct: expressed in transfected cells
T1 sequence (P41180 20-1078): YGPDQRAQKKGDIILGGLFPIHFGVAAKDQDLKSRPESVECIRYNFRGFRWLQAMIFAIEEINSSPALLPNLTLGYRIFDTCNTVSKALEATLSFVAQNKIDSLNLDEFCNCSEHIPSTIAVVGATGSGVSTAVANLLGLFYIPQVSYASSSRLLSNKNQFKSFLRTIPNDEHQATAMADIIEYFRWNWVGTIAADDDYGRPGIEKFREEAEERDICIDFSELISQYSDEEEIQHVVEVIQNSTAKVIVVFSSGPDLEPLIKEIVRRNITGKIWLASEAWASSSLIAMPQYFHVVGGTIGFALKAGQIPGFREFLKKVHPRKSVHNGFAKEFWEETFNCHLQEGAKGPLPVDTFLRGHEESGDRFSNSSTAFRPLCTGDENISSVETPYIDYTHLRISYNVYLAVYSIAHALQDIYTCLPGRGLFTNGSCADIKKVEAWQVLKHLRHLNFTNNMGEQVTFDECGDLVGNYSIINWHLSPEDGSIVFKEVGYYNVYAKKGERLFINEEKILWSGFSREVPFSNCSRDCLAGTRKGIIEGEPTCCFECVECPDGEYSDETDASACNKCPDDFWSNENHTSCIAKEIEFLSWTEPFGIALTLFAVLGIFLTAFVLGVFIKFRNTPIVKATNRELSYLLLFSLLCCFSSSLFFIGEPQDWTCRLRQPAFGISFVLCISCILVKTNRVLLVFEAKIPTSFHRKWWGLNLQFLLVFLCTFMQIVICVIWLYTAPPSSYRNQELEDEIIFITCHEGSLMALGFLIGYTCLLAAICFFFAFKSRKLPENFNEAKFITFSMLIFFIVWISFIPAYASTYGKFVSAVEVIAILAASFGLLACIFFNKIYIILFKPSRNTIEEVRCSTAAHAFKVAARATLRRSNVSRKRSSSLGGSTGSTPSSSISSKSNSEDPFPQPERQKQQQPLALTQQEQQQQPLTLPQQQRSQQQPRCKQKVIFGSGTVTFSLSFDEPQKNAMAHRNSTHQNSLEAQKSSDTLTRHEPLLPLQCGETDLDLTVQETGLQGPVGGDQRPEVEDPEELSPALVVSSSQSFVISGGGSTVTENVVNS
In words: [Ca2+]i measurement with fluo-3 in HEK 293 4.0-7 cells stably transfected with hPCaR. It counts as cell-based. Particulars: fluo-3 fluorescence (485/530 nm), effect on [Ca^2+]i. As for the experimental part: The activities of the compounds of the present invention on calcium receptors were measured. In one embodiment, the measurement was performed in accordance with the method described in Example 4 of Nemeth et al., PCT/US95/13704 (International Publication No. WO96/12697) herein incorporated by reference.
A 4.0-kb NotI-HindIII fragment of the human parathyroid cell Ca^2+ receptor (hPCaR) cDNA was subcloned into the mammalian expression vector pCEP4 (Invitrogen) containing the hygromycin-resistant gene as a selectable marker. This plasmid was transfected into HEK 293 cells by calcium phosphate precipitation. Transfected cells were grown in Dulbecco's modified Eagle's medium containing 10% fetal bovine serum and hygromycin (200 μg/mL). Hygromycin-resistant colonies were subcloned and assayed for hPCaR mRNA by solution hybridization using a ^32P-labeled RNA probe complementary to the (4.0 kb) hPCaR sequence (Garrett, et al., J. Biol. Chem. 270, 12919-12925 (1995)). Clone 7 was used to assess the effects of compounds on [Ca^2+]i. This stably transfected cell line is termed HEK 293 4.0-7. For measurements of [Ca^2+]i, the cells were recovered from tissue culture flasks by brief treatment with 0.02% EDTA and then washed and resuspended in PCB containing 1 mM CaCl2 and 0.1% Bovine Serum Albumin (“BSA”). The cells were loaded with fluo-3 by incubation for 30 min at 37° C., with parathyroid cell buffer (126 mM NaCl, 4 mM KCl, 1 mM MgSO4, 0.7 mM K2HPO/KH2PO4, 20 mM HEPES.NaOH (pH 7.45)) containing 0.5% BSA in lmM CaCl2 and 2 μM fluo-3 acetoxymethyl ester. The cells were subsequently washed, each test compound was added to the cells and the fluorescence was recorded by using excitation and emission wavelengths of 485 and 530 nm, respectively.
For orientation: EC50 means the concentration that produces a half-maximal response. A lower EC50 goes with a more potent agent. For the compound `COc1ccc(CNC(C)c2cccc(N(C)C)c2)cc1-c1ccc(C(F)(F)F)cc1` (stereo not drawn), the EC50 was not above 10 µM.

For the compound `COc1cccc([C@@H](C)NCc2ccc(OC)c(-c3csc(N4CCCCC4)n3)c2)c1`, the EC50 is not above 10 µM.

The compound `COc1cccc([C@@H](C)NCc2ccc(OC)c(-c3ccc4oc(C)nc4c3)c2)c1` came in with a 50% effective concentration (EC50) not above 10 µM.

Take `COc1ccc(CN[C@H](C)c2cccc3ccccc23)cc1-c1ccc(C(F)(F)F)nc1`: the EC50 was not above 10 µM.

In turn, `COc1ccc(CN[C@H](C)c2cccc(C#N)c2)cc1-c1ccc(C(F)(F)F)cc1` (stereo in doubt) [3-(1-(((6-(methyloxy)-4′-(trifluoromethyl)-1,1′-biphenyl-3-yl)methyl)amino)ethyl)benzonitrile] displayed an EC50 not above 10 µM.

In the case of `COc1ccc(CNC(C)c2cccc(Cl)c2Cl)cc1-c1ccc(C(F)(F)F)cc1` (stereo not drawn) [1-(2,3-dichlorophenyl)-N-((6-(methyloxy)-4′-(trifluoromethyl)-1,1′-biphenyl-3-yl)methyl)ethanamine], the EC50 was not above 10 µM.

As to `COCCn1cc(-c2cc(CN[C@H](C)c3cccc4ccccc34)ccc2OC)ccc1=O` [1-(2-(methyloxy)ethyl)-5-(2-(methyloxy)-5-((((1R)-1-(1-naphthalenyl)ethyl)amino)methyl)phenyl)-2(1H)-pyridinone], the EC50 was not above 10 µM.

In turn, `COCCn1cc(-c2cc(CN[C@H](C)c3cccc(OC)c3)ccc2OC)ccc1=O` [1-(2-(methyloxy)ethyl)-5-(2-(methyloxy)-5-((((1R)-1-(3-(methyloxy)phenyl)ethyl)amino)methyl)phenyl)-2-(1H)-pyridinone] came in with an EC50 not above 10 µM.

`COc1ccc(CNC(C)c2cc(F)cc(F)c2)cc1-c1ccc(C(F)(F)F)cc1` (stereo not drawn) [1-(3,5-difluorophenyl)-N-((6-(methyloxy)-4′-(trifluoromethyl)-1,1′-biphenyl-3-yl)methyl)ethanamine]: the EC50 was not above 10 µM.

For the compound `COc1ccc(CNC(C)c2cccc(Br)c2)cc1-c1ccc(C(F)(F)F)cc1` (stereo not drawn) [1-(3-bromophenyl)-N-((6-(methyloxy)-4′-(trifluoromethyl)-1,1′-biphenyl-3-yl)methyl)ethanamine], the EC50 was not above 10 µM.

Compound `COc1ccc(CNC(C)c2cccc(F)c2)cc1-c1ccc(C(F)(F)F)cc1` (stereo not drawn) [1-(3-fluorophenyl)-N-((6-(methyloxy)-4′-(trifluoromethyl)-1,1′-biphenyl-3-yl)methyl)ethanamine] showed an EC50 not above 10 µM.

Compound `COc1ccc(CNC(C)c2ccc(F)cc2)cc1-c1ccc(C(F)(F)F)cc1` (stereo not drawn) [1-(4-fluorophenyl)-N-((6-(methyloxy)-4′-(trifluoromethyl)-1,1′-biphenyl-3-yl)methyl)ethanamine] returned an EC50 not above 10 µM.

`COc1ccc(CN[C@H](C)c2cccc3ccccc23)cc1-c1ccc(=O)n(C)c1` [1-methyl-5-(2-(methyloxy)-5-((((1R)-1-(1-naphthalenyl)ethyl)amino)methyl)phenyl)-2-(1H)-pyridinone] gave an EC50 not above 10 µM.

The compound `COc1cccc([C@@H](C)NCc2ccc(OC)c(-c3ccc(=O)n(C)c3)c2)c1` [1-methyl-5-(2-(methyloxy)-5-((((1R)-1-(3-(methyloxy)phenyl)ethyl)amino)methyl)phenyl)-2(1H)-pyridinone] gave an EC50 not above 10 µM.

Turning to `COc1ccc(CN[C@H](C)c2ccccc2)cc1-c1ccc(=O)n(C)c1` [1-methyl-5-(2-(methyloxy)-5-((((1R)-1-phenylethyl)amino)methyl)phenyl)-2(1H)-pyridinone], the EC50 was not above 10 µM.

Turning to `COc1ccc(CN[C@H](C)c2cccc3ccccc23)cc1-c1ccc2c(ccn2CC(N)=O)c1` [2-(5-(2-(methyloxy)-5-((((1R)-1-(1-naphthalenyl)ethyl)amino)methyl)phenyl)-1H-indol-1-yl)acetamide], the EC50 is not above 10 µM.

`COc1cccc([C@@H](C)NCc2ccc(OC)c(-c3ccc4c(ccn4CC(N)=O)c3)c2)c1` [2-(5-(2-(methyloxy)-5-((((1R)-1-(3-(methyloxy)phenyl)ethyl)amino)methyl)phenyl)-1H-indol-1-yl)acetamide] registered an EC50 not above 10 µM.

Regarding `COc1ccc(CN[C@H](C)c2ccccc2)cc1-c1ccc2c(ccn2CC(N)=O)c1` [2-(5-(2-(methyloxy)-5-((((1R)-1-phenylethyl)amino)methyl)phenyl)-1H-indol-1-yl)acetamide], the EC50 was not above 10 µM.

For the compound `COc1ccc(CN[C@H](C)c2cccc3ccccc23)cc1-c1cccc(C#N)c1` [2′-(methyloxy)-5′-((((1R)-1-(1-naphthalenyl)ethyl)amino)methyl)-1,1′-biphenyl-3-carbonitrile], the EC50 is not above 10 µM.

On to `COc1ccc(CN[C@H](C)c2cccc3ccccc23)cc1-c1cccc(C(N)=O)c1` [2′-(methyloxy)-5′-((((1R)-1-(1-naphthalenyl)ethyl)amino)methyl)-1,1′-biphenyl-3-carboxamide], for which the EC50 is not above 10 µM.

Compound `COc1ccc(CN[C@H](C)c2cccc3ccccc23)cc1-c1cccc(C(=O)O)c1` [2′-(methyloxy)-5′-((((1R)-1-(1-naphthalenyl)ethyl)amino)methyl)-1,1′-biphenyl-3-carboxylic acid] showed an EC50 not above 10 µM.

As for `COc1ccc(CN[C@H](C)c2cccc3ccccc23)cc1-c1ccc(C(N)=O)cc1` [2′-(methyloxy)-5′-((((1R)-1-(1-naphthalenyl)ethyl)amino)methyl)-1,1′-biphenyl-4-carboxamide], the EC50 was not above 10 µM.

`COc1cccc([C@@H](C)NCc2ccc(OC)c(-c3cccc(C#N)c3)c2)c1` [2′-(methyloxy)-5′-((((1R)-1-(3-(methyloxy)phenyl)ethyl)amino)methyl)-1,1′-biphenyl-3-carbonitrile] showed an EC50 not above 10 µM.

For `COc1cccc([C@@H](C)NCc2ccc(OC)c(-c3cccc(C(N)=O)c3)c2)c1` [2′-(methyloxy)-5′-((((1R)-1-(3-(methyloxy)phenyl)ethyl)amino)methyl)-1,1′-biphenyl-3-carboxamide], the EC50 was not above 10 µM.

For the compound `COc1cccc([C@@H](C)NCc2ccc(OC)c(-c3cccc(C(=O)O)c3)c2)c1` [2′-(methyloxy)-5′-((((1R)-1-(3-(methyloxy)phenyl)ethyl)amino)methyl)-1,1′-biphenyl-3-carboxylic acid], the EC50 was not above 10 µM.

Consider `COc1cccc([C@@H](C)NCc2ccc(OC)c(-c3ccc(C(N)=O)cc3)c2)c1` [2′-(methyloxy)-5′-((((1R)-1-(3-(methyloxy)phenyl)ethyl)amino)methyl)-1,1′-biphenyl-4-carboxamide], for which the EC50 is not above 10 µM.

Regarding `COc1ccc([C@@H](C)NCc2ccc(OC)c(-c3cccc(C#N)c3)c2)cc1` [2′-(methyloxy)-5′-((((1R)-1-(4-(methyloxy)phenyl)ethyl)amino)methyl)-1,1′-biphenyl-3-carbonitrile], the EC50 is not above 10 µM.

`COc1ccc(CN[C@H](C)c2ccc(C)cc2)cc1-c1cccc(C#N)c1` [2′-(methyloxy)-5′-((((1R)-1-(4-methylphenyl)ethyl)amino)methyl)-1,1′-biphenyl-3-carbonitrile]: the EC50 was not above 10 µM.

In the case of `COc1ccc(CN[C@H](C)c2ccccc2)cc1-c1cccc(C#N)c1` [2′-(methyloxy)-5′-((((1R)-1-phenylethyl)amino)methyl)-1,1′-biphenyl-3-carbonitrile], the EC50 was not above 10 µM.

`COc1ccc(CN[C@H](C)c2ccccc2)cc1-c1cccc(C(N)=O)c1` [2′-(methyloxy)-5′-((((1R)-1-phenylethyl)amino)methyl)-1,1′-biphenyl-3-carboxamide] displayed an EC50 not above 10 µM.
